Measurements published in PMC6269910 (Molecules, 2013).
“And” between values parts separate entries of the source, which are not always exact repeats. Equal values may be shown once.

What was measured:
[1] = tested on: carrageenan-induced hind paw edema; assay: Carrageenan-induced hind paw edema model; assay type: in vivo, mice; details: for anti-inflammatory activity (in words): all doses, all measurement intervals
Experimental: Locally bred balb/c mice of both sexes (30-35 g) were purchased from the animal breeding laboratories of Inonu University ([…], Turkey). The animals were fed a standard pellet diet and water ad libitum in a temperature-controlled room. On the day before the treatments, food was withdrawn, but the animals were allowed free access of water. The allocation of animals to different groups was randomized, and the experiments were carried out under blind conditions. Mice used in the present study were cared for in accordance with the directory of the Inonu University Animal Care Unit, which applies the guidelines of the National Institutes of Health on laboratory animal welfare. Procedures involving animals and their care were conducted in conformity with international laws and policies and animal studies accepted by Inonu University Ethical Council (2011/A17). Test samples, suspended in a mixture of distilled water and 0.5% sodium carboxymethyl cellulose (CMC), were given orally to the animals. The control group animals received the same experimental handling as those of the test groups, except that the drug treatment was replaced with appropriate volumes of the dosing vehicle. […] For the preliminary activity screening, each test group was composed of four mice. […] Because of the daily changing circumstance, we used another control group for each experiment. For the determination of the effects on carrageenan-induced paw oedema, the modified method of Kasahara et al. was employed. One hour after the oral administration of either test sample or dosing vehicle, each mouse was injected with a freshly prepared (0.5 mg/25 μL) suspension of carrageenan (Sigma, St. Louis, MO, USA) in physiological saline (154 mM NaCl). The subplantar tissue of the right hind paw was the injection site for all mice. The contralateral paw (left hind paw) was injected with 25 μL saline solution as the internal control. […] The difference in footpad thickness between the right and left foot indicated the degree of inflammation for each mouse. The change in paw volume, either increase or decrease, was calculated and compared with the control group (dosing vehicle) and analyzed using statistical methods.

[2] = tested on: acetic acid-induced abdominal constriction; assay: Acetic acid-induced writhing (Koster) test; assay type: in vivo, mice; details: for Writhing test (% inh.) / Writhing test (Mean ± SEM): 100 mg/kg oral; for Writhing test (Mean ± SEM): writhings counted 10 min from 5 min after acetic acid
Experimental: Test samples, suspended in a mixture of distilled water and 0.5% sodium carboxymethyl cellulose (CMC), were given orally to the animals. The control group animals received the same experimental handling as those of the test groups, except that the drug treatment was replaced with appropriate volumes of the dosing vehicle. […] One hour after oral administration of test sample, each mouse was injected intraperitoneally with 3% (w/v) acetic acid solution (0.1 mL/10 g, bw). Starting 5 min after the acetic acid injection, the number of muscular contractions on mice were counted for a period of 10 min. A significant reduction in the number of writhings by any treatment as compared to the number of writhings in control animals was considered a positive analgesic response. The analgesic activity was expressed as a percentage change from writhing controls. ASA was used as a reference compound and administered at 200 mg/kg.

[3] = tested on: stomach; assay: Gastric-ulcerogenic effect (ulcer score); assay type: in vivo, mice; details: 200 mg/kg p.o.; animals with lesions/animals
[4] = tested on: lipid peroxidation in stomach; assay: Lipid peroxidation in stomach (TBARS); assay type: in vivo, mice; details: 100 mg/kg, 8 h after analgesic test
[5] = target: T1, HCV NS5B RNA dependent RNA polymerase (Hepatitis C virus genotype 1b, UniProt P26663); assay: NS5B inhibition assay (primer dependent elongation, poly rA-U12); assay type: biochemical; details: for inhibition at 100 µM: read-out: Anti-NS5B Activity (% Inh., 100 µM)
T1 construct: HCV NS5B RNA dependent RNA polymerase activity
Experimental: The compounds 1a–e and 2a–e were reconstituted in DMSO as 50 mM stocks, and serially diluted in DMSO to obtain working stocks. Wedelolactone, a known inhibitor of HCV NS5B activity, was employed as a reference compound. Preliminary screening was carried out at 100 μM to identify a wider range of compounds.
All synthesized compounds were evaluated for their effect on HCV NS5B RNA dependent RNA polymerase activity in primer dependent elongation assays as previously described. Activity of NS5B in the absence of the inhibitor but containing an equivalent amount of DMSO (control reaction) was set at 100% and that in the presence of the inhibitor was quantified relative to this control.

T1 sequence (P26663 2420-3010): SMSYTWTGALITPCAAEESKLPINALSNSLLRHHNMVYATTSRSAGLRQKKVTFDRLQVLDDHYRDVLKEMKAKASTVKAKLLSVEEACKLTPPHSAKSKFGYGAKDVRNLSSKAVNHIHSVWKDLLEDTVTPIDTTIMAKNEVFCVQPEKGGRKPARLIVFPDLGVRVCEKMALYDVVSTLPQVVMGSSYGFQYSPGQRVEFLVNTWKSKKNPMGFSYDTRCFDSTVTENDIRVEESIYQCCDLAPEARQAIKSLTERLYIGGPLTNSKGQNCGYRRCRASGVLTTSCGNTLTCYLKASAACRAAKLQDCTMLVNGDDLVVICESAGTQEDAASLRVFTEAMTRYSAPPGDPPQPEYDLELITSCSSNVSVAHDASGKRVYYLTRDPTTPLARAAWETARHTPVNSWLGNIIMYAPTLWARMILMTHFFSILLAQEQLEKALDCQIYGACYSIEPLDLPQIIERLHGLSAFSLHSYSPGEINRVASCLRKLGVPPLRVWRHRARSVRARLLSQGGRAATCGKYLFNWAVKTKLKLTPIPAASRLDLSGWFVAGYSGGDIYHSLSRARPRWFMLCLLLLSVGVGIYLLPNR

Row | SMILES | Swelling in thickness ± SEM ([1]; 50 mg/kg per os, 90 min) | percent inhibitory activity ([1]; 50 mg/kg per os, 90 min) [%] | Swelling in thickness ± SEM ([1]; 50 mg/kg per os, 180 min) | percent inhibitory activity ([1]; 50 mg/kg per os, 180 min) [%] | Swelling in thickness ± SEM ([1]; 50 mg/kg per os, 270 min) | percent inhibitory activity ([1]; 50 mg/kg per os, 270 min) [%] | Swelling in thickness ± SEM ([1]; 50 mg/kg per os, 360 min) | percent inhibitory activity ([1]; 50 mg/kg per os, 360 min) [%] | Swelling in thickness ± SEM ([1]; 100 mg/kg per os, 90 min) | Swelling in thickness ± SEM ([1]; 100 mg/kg per os, 270 min) | percent inhibitory activity ([1]; 100 mg/kg per os, 270 min) [%] | Swelling in thickness ± SEM ([1]; 100 mg/kg per os, 360 min) | percent inhibitory activity ([1]; 100 mg/kg per os, 360 min) [%] | Swelling in thickness ± SEM ([1]; 200 mg/kg per os, 90 min) | Swelling in thickness ± SEM ([1]; 200 mg/kg per os, 180 min) | Swelling in thickness ± SEM ([1]; 200 mg/kg per os, 360 min) | percent inhibitory activity ([1]; 200 mg/kg per os, 360 min) [%] | anti-inflammatory activity (in words) [1] | Writhing test (% inh.) [2] [%] | Writhing test (Mean ± SEM) [2] | other results
1 | Cc1ccc(-c2cc(C(F)(F)F)nn2-c2ccc(S(=O)(=O)NC(=S)Nc3ccc([N+](=O)[O-])cc3)cc2)cc1 [Compound 1d] | 70.0 ± 4.7 × 10^−2 mm | 2.7 | 77.0 ± 2.0 × 10^−2 mm | 16.3 | 112.0 ± 7.3 × 10^−2 mm | 7.4 | 125.0 ± 5.9 × 10^−2 mm | 3.1 | 95.9 ± 10.2 × 10^−2 mm | 110.7 ± 11.0 × 10^−2 mm | 8.5 | 88.7 ± 9.3 × 10^−2 mm | 31.2 | 45.9 ± 10.9 × 10^−2 mm | 65.3 ± 6.4 × 10^−2 mm | 91.0 ± 3.3 × 10^−2 mm | 29.5 | moderate-to-good | 19.5 | 14.0 ± 3.0 | percent inhibitory activity ([1]; 200 mg/kg per os, 90 min): 36.2%; percent inhibitory activity ([1]; 200 mg/kg per os, 180 min): 29.0%; Swelling in thickness ± SEM ([1]; 200 mg/kg per os, 270 min): 98.2 ± 9.8 × 10^−2 mm; percent inhibitory activity ([1]; 200 mg/kg per os, 270 min): 19.0%; Ulcer score [3]: 0/5; Lipid peroxidation [4]: 429.2 ± 23.2 nmol TBARS/g wet weight; IC50 ([5]; dose-response, 8–12 concentrations): 46 µM and 45.5 µM; inhibition at 100 µM [5]: 68%; melting point: 245 to 248 °C
2 | Cc1ccc(-c2cc(C(F)(F)F)nn2-c2ccc(S(=O)(=O)/N=C3\SCC(=O)N3c3ccc([N+](=O)[O-])cc3)cc2)cc1 [Compound 2d, N-[3-(4-Nitrophenyl)-4-oxo-1,3-thiazolidin-2-yldene)-4-[5-(4-methylphenyl)-3-(trifluoromethyl)-1H-pyrazol-1-yl]benzenesulfonamide] | 47.0 ± 3.3 × 10^−2 mm | 34.7 | 47.0 ± 3.7 × 10^−2 mm | 48.9 | 89.0 ± 6.5 × 10^−2 mm | 26.4 | 110.0 ± 6.7 × 10^−2 mm | 14.7 | 73.2 ± 11.1 × 10^−2 mm | 98.2 ± 16.7 × 10^−2 mm | 21.6 | 120.9 ± 9.3 × 10^−2 mm | 6.3 | 80.6 ± 9.4 × 10^−2 mm | 86.0 ± 9.4 × 10^−2 mm | 108.6 ± 5.6 × 10^−2 mm | 15.8 | moderate-to-good | 31 | 12.0 ± 2.6 | Swelling in thickness ± SEM ([1]; 100 mg/kg per os, 180 min): 100.6 ± 5.8 × 10^−2 mm; percent inhibitory activity ([1]; 200 mg/kg per os, 180 min): 6.5%; analgesic activity (in words) ([2]; 100 mg/kg): not statistically significant; Ulcer score [3]: 0/5; Lipid peroxidation [4]: 350.2 ± 9.9 nmol TBARS/g wet weight; inhibition at 100 µM [5]: 31.3%; melting point: 270 to 272 °C
3 | Cc1ccc(-c2cc(C(F)(F)F)nn2-c2ccc(S(=O)(=O)NC(=S)Nc3ccc(C(F)(F)F)cc3)cc2)cc1 [Compound 1e] | 47.0 ± 3.3 × 10^−2 mm | 34.7 | 57.0 ± 6.2 × 10^−2 mm | 38.0 | 92.0 ± 1.2 × 10^−2 mm | 23.9 | 106.0 ± 6.7 × 10^−2 mm | 17.8 | 88.4 ± 2.6 × 10^−2 mm | 88.7 ± 11.4 × 10^−2 mm | 26.7 | 83.4 ± 9.6 × 10^−2 mm | 35.4 | 76.9 ± 5.7 × 10^−2 mm | 83.0 ± 6.8 × 10^−2 mm | 103.7 ± 5.2 × 10^−2 mm | 19.6 | moderate-to-good | −37.9 | 24.0 ± 3.0 | Swelling in thickness ± SEM ([1]; 100 mg/kg per os, 180 min): 83.9 ± 3.4 × 10^−2 mm; percent inhibitory activity ([1]; 100 mg/kg per os, 180 min): 8.8%; Swelling in thickness ± SEM ([1]; 200 mg/kg per os, 270 min): 110.5 ± 7.5 × 10^−2 mm; Ulcer score [3]: 0/5; Lipid peroxidation [4]: 406.9 ± 27.0 nmol TBARS/g wet weight; inhibition at 100 µM [5]: 14.6%; melting point: 228 to 231 °C
